# Assay results as given in US5442060A, “Carboxamide derivatives” (Mitsubishi Kasei Corporation, priority 1992, dated 1995).
# Structures can show the parent of a compound that is named as a salt.
# Target: T1, ACAT (Homo sapiens, UniProt P35610)
# T1 construct: endogenous in cells; host or cells: HepG2
# T1 sequence (P35610 1-550): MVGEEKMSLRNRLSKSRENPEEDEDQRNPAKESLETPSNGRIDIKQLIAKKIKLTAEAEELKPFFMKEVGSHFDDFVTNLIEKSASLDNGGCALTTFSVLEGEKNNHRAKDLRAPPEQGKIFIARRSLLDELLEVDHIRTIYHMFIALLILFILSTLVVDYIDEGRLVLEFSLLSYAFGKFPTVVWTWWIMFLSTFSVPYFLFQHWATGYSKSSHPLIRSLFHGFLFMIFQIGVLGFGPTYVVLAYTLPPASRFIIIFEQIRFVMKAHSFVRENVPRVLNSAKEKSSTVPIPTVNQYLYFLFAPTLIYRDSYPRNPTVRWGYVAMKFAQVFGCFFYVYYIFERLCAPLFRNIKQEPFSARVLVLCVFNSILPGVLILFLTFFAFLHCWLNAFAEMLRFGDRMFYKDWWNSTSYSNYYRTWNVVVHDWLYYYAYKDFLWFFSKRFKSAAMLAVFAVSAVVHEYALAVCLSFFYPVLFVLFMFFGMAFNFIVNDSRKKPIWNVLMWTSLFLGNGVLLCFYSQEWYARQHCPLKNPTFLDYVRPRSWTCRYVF
# Assay: ACAT inhibition: radiolabelled cholesterol oleate production from labelled oleic acid in HepG2 cells
# Type: cell-based
# Conditions: concentration required to inhibit 50% of ACAT (cholesterol oleate production vs control)
# Protocol: ACAT inhibition of the compounds of the present invention were assayed by the following method. HepG2 cell coming from human hepatic cancer cell was used for assaying ACAT activity. Thus, the assay was effected by adding radioactivity labelled oleic acid-bovine serum albumin complex into an incubation solution of HepG2 cell and measuring the amount of radioactivity labelled cholesterol oleate produced from the radioactivity labelled oeleic acid within the cell. Therefore, the activity of the compound of this invention to inhibit ACAT was obtained by calculating how much percent lowered the productivity of cholesterol oleate in control group containing no test compound by adding the test compound in each concentration (μM) and then expressing IC50 value, namely concentration of a test compound required to inhibit 50% expression of enzyme.
row,Compound,IC50
1,"CCCCCC(CC(=O)Nc1c(C(C)C)cccc1C(C)C)c1cccc2c1OCO2 (centres unmarked) [Example 1, N-(2,6-diisopropylphenyl)-3-(2,3-methylenedioxyphenyl)octanamide]",0.01 µM
2,"CCCCCC(CC(=O)Nc1c(C(C)C)cccc1C(C)C)c1cccc(OC)c1OC (centres unmarked) [Example 2, N-(2,6-Diisopropylphenyl)-3-(2,3-dimethoxyphenyl)octanamide]",0.003 µM
3,"CCCCC(CC(=O)Nc1c(C(C)C)cccc1C(C)C)c1cccc(OC)c1OC (centres unmarked) [Example 3, N-(2,6-Diisopropylphenyl)-3-(2,3-dimethoxyphenyl) heptanamide]",0.018 µM
4,"CCCCCCC(CC(=O)Nc1c(C(C)C)cccc1C(C)C)c1cccc(OC)c1OC (centres unmarked) [Example 4, N-(2,6-Diisopropylphenyl)-3-(2,3-dimethoxyphenyl) nonanamide]",0.0065 µM
5,"CCCCCC(CCC(=O)Nc1c(C(C)C)cccc1C(C)C)c1cccc2c1OCO2 (centres unmarked) [Example 8, N-(2,6-Diisopropylphenyl)-4-(2,3-methylenedioxyphenyl)nonanamide]",0.01 µM
6,"CCCCCC(CCC(=O)Nc1c(C(C)C)cccc1C(C)C)c1cccc(OC)c1OC (centres unmarked) [Example 9, N-(2,6-Diisopropylphenyl)-4-(2,3-dimethoxyphenyl) nonanamide]",0.05 µM
7,"CCCCCC(CC(=O)Nc1c(C(C)C)cccc1C(C)C)c1cc(C(C)=O)cc(OC)c1OC (centres unmarked) [Example 10, N-(2,6-Diisopropylphenyl)-3-(5-acetyl-2,3-dimethoxyphenyl) octanamide]",0.0076 µM
8,"CCCCCC(CC(=O)Nc1c(C(C)C)cccc1C(C)C)c1cc(N(C)C)cc(OC)c1OC (centres unmarked) [Example 17, N-(2,6-diisopropylphenyl)-3-(2,3-dimethoxy-5-dimethylaminophenyl) octanamide]",0.0009 µM
9,"CCCCC[C@H](CC(=O)Nc1c(C(C)C)ccc(N(C)C)c1C(C)C)c1cccc2c1OCO2 [Example 18, (R)-N-(2,6-diisopropyl-3-dimethylaminophenyl)-3-(2,3-methylenedioxyphenyl) octanamide hydrochloride]",0.101 µM
10,"CCCCC[C@@H](CNC(=O)Nc1c(N2CCCC2)ncnc1N1CCCC1)c1cccc2c1OCO2 [Example 26, (R)-1-[2-(2,3-methylenedioxyphenyl)heptyl]-3-(4,6-dipyrrolidinopyrimidine-5-yl) urea]",0.175 µM
11,"CCCCC[C@@H](CNC(=O)Nc1c(OC(C)C)ncnc1OC(C)C)c1cccc2c1OCO2 [Example 29, (R)-1-[2-(2,3-methylenedioxyphenyl)heptyl]-3-[4,6-di (1-methylethoxy)pyrimidine-5-yl]urea]",0.314 µM
12,"CCCCC[C@@H](CNC(=O)Nc1c(OC(C)C)c(C)nn1C(C)(C)C)c1cccc2c1OCO2 [Example 34, (R)-1-[2-(2,3-methylenedioxyphenyl)heptyl]-3-[1-(1,1-dimethylethyl)-3-methyl-4-(1-methylethoxy)pyrazole-5-yl]urea]",0.106 µM

# Results, then the molecule that gave them:
row,IC50,Compound
1,0.037 µM,"CCCCC[C@@H](CNC(=O)Nc1c(OC(C)C)ccc2c1CCCC2)c1cccc2c1OCO2 [Example 20, (R)-1-[2-(2,3-methylenedioxyphenyl)heptyl]-3-(2-isopropoxy-5,6,7,8-tetrahydronaphthalene-1-yl) urea]"
2,0.154 µM,"CCCCC[C@@H](CNC(=O)Nc1c(OC)ccc2c1CCCC2)c1cccc2c1OCO2 [Example 21, (R)-1-[2-(2,3-methylenedioxyphenyl)heptyl]-3-(2-methoxy-5,6,7,8-tetrahydronaphthalene-1-yl) urea]"
3,0.139 µM,"CCCCC[C@@H](CNC(=O)Nc1c(OCC)ccc2c1CCCC2)c1cccc2c1OCO2 [Example 22, (R)-1-[2-(2,3-methylenedioxyphenyl)heptyl]-3-(2-ethoxy-5,6,7,8-tetrahydronaphthalene-1-yl) urea]"
4,0.195 µM,"CCCCC[C@@H](CNC(=O)Nc1c(OCC)ccc2c1CCC2)c1cccc2c1OCO2 [Example 23, (R)-1-[2-(2,3-methylenedioxyphenyl)heptyl]-3-(5-ethoxyindane-4-yl) urea]"
5,0.23 µM,"CCCCC[C@@H](CNC(=O)Nc1cccc2c1OC(C)(C)C2)c1cccc2c1OCO2 [Example 24, (R)-1-[2-(2,3-methylenedioxyphenyl)heptyl]-3-(2,3-dihydro-2,2-dimethylbenzofuran-7-yl) urea]"
6,0.057 µM,"CCCCC[C@@H](CNC(=O)Nc1c(N(C)C)ncnc1N(C)C)c1cccc2c1OCO2 [Example 25, (R)-1-[2-(2,3-methylenedioxyphenyl)heptyl]-3-[4,6-bis (dimethylamino)pyrimidine-5-yl]urea]"
7,0.109 µM,"CCCCC[C@@H](CNC(=O)Nc1c(OCC)ncnc1N(C)C)c1cccc2c1OCO2 [Example 30, (R)-1-[2-(2,3-methylenedioxyphenyl)heptyl]-3-(4-dimethylamino-6-ethoxypyrimidine-5-yl) urea]"
8,0.028 µM,"CCCCC[C@@H](CNC(=O)Nc1c(OC(C)C)c(C)nn1-c1ccccc1)c1cccc2c1OCO2 [Example 31, (R)-1-[2-(2,3-methylenedioxyphenyl)heptyl]-3-[3-methyl-4-(1-methylethoxy)-1-phenylpyrazole-5-yl]urea]"
